Read-outs that look alike come from different tables or passages of the source.
Key:
[1] = system: Z α1‐antitrypsin secretion in iPSC‐derived human hepatocytes (ZZ genotype); experiment: Secretion of Z α1‐antitrypsin from ZZ iPSC‐derived human hepatocytes; assay type: cell-based; settings: for EC50: Hepatocyte
Description: The ability of GSK716 to block Z α1‐antitrypsin polymerisation in the ER during folding was assessed by adding GSK716 to CHO‐TET‐ON‐Z‐A1AT cells (Ordóñez et al, 2013) with simultaneous induction of Z α1‐antitrypsin expression using doxycycline. […] Similar potency between the effects on secretion and polymerisation was observed throughout members of the lead series supporting the hypothesis that these effects are caused by the same pharmacological mode of action.
Figure 2 GSK716 inhibits polymerisation of Z α1‐antitrypsin in cell models of disease • A GSK716 was added to CHO‐TET‐ON‐Z‐A1AT cells (Ordóñez et al, 2013) with simultaneous induction of Z α1‐antitrypsin expression using doxycycline, and polymer load was quantified with the 2C1 monoclonal antibody that is specific to pathological polymers of α1‐antitrypsin (Miranda et al, 2010). […] Data were normalised to vehicle and a control compound from the GSK716 series at saturating concentration. […] It induced an approximately threefold increase in secreted levels of Z α1‐antitrypsin compared with vehicle control. […] For every time point, NP‐40‐soluble and NP‐40‐insoluble fractions were separated and immunoprecipitated with the 2C1 mAb and resolved by 4–12% w/v SDS–PAGE and α1‐antitrypsin detected by immunoblotting. […] Cell viability was measured by Cell Counting Kit‐8. […] Samples were resolved by 4–12% w/v acrylamide SDS–PAGE and detected by autoradiography. • H The graphs show the effect of GSK716 on intracellular and extracellular Z α1‐antitrypsin (mean ± SEM, n = 2).
The accumulation and clearance of Z α1‐antitrypsin polymer was measured with the 2C1 monoclonal antibody that is specific for polymerised antitrypsin in CHO‐TET‐ON‐Z‐α1AT cells (Ordóñez et al, 2013) and iPSC‐derived hepatocytes generated from a patient with a PiZZ genotype (Yusa et al, 2011). Secretion of Z α1‐antitrypsin was determined by TR‐FRET. Cell viability was analysed with Cell Counting Kit‐8 (Sigma) after treating the cells with 10 µM GSK716 or 0.1% v/v DMSO (vehicle) and an increasing concentration of tunicamycin (0.8–0.01 µg/ml).

Phospholipidosis = experiment: Off‐target panel: Phospholipidosis; assay type: cell-based; settings: Induction (pMEC)
Description: (§1) GSK716 selectivity and PK properties were profiled in order to investigate the suitability of GSK716 for progression into in vivo studies and the potential for taking it forward as a clinical candidate for testing in humans. Since GSK716 results in loss of inhibitory activity of α1‐antitrypsin, the effect of the compound was assessed on other closely related serpins. […] Furthermore, there were no off‐target effects in a panel of assays considered predictive of known safety liabilities that precluded further development of GSK716 (Table EV1).

Serotonin 5HT1B = Serotonin 5HT1B (Homo sapiens, UniProt P28222); experiment: Off‐target panel: Serotonin 5HT1B (DRX); assay type: cell-based
Description: as §1

[2] = target: polymers of Z α1‐antitrypsin (Homo sapiens, UniProt P01009, E366K); experiment: Binding to Z α1‐antitrypsin polymers (fluorescence polarisation)
Description: Figure 1 Characteristics of the lead series of chiral hydroxy‐carboxamides identified from the ELT screen • The structure of GSK425, identified from the ELT screen, and the derived compound GSK716 obtained through a structure‐based design pipeline. • The degree of polymerisation of Z α1‐antitrypsin after 72 h at 37°C, as determined by an end‐point immunoassay using the 2C1 monoclonal antibody, in varying concentrations of compound (shown in panel A). […] Data presented as mean ± SD. • The compound bound to monomeric but not polymeric Z α1‐antitrypsin (Z α1‐AT) as reported by fluorescence polarisation of an Alexa‐488‐labelled variant of GSK716. • Representative curves reporting the interaction of different concentrations of GSK716 with Z α1‐antitrypsin based on changes in intrinsic tryptophan fluorescence.
Kinetic parameters of GSK716 binding to M, Z, S (Glu264Val) and Baghdad (Ala336Pro) (Haq et al, 2016) α1‐antitrypsin were measured by detecting intrinsic tryptophan fluorescence of the protein (excitation at 280 nm and detection of emission at 320 nm) on a stopped flow apparatus (Applied Photophysics) (Kim & Yu, 1996; Dafforn et al, 1999). […]

Cannabinoid CB1 = Cannabinoid CB1 (Homo sapiens, UniProt P21554); experiment: Off‐target panel: Cannabinoid CB1 (DRX); assay type: cell-based
Description: as §1

Chain of Serotonin 5HT1B (P28222 whole entry): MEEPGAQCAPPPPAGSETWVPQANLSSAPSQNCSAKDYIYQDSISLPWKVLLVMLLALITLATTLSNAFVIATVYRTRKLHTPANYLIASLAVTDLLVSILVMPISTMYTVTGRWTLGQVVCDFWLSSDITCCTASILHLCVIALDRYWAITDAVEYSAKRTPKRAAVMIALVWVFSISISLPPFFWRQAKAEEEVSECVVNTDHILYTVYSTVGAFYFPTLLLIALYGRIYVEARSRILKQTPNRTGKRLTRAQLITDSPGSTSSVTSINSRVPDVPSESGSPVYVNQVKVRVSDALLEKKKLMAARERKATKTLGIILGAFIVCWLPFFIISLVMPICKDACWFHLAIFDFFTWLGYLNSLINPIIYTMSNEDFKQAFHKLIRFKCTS
Chain of polymers of Z α1‐antitrypsin (P01009 25-418 E366K): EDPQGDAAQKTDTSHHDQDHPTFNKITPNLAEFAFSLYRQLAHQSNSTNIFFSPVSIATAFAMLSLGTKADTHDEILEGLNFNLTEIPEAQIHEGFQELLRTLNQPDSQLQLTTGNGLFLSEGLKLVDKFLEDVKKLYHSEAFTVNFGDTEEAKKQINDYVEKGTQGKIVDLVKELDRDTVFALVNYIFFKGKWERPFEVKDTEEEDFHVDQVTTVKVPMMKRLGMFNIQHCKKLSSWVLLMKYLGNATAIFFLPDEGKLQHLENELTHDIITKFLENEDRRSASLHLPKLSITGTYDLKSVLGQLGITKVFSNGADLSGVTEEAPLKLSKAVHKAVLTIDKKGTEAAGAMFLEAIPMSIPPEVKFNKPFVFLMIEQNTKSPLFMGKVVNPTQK
Chain of Cannabinoid CB1 (P21554 whole entry): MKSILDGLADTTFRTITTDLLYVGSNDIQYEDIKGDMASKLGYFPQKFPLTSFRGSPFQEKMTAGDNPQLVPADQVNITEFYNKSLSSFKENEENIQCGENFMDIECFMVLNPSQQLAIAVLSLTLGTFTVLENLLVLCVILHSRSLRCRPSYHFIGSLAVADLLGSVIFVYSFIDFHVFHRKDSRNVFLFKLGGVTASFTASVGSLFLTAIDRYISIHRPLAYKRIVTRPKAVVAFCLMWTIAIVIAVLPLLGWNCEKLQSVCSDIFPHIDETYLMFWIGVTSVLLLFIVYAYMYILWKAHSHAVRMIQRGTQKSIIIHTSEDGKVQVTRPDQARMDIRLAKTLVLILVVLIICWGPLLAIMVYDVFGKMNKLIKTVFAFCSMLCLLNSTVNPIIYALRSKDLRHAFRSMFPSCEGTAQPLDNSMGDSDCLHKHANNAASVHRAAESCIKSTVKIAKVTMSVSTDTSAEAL

Structure (SMILES): CCC[C@@H](NC(=O)c1cccc2c1CC(=O)N2)[C@@H](O)c1cccc(F)c1C [GSK716]
- EC50 ([1]; ZZ iPSC‐derived human hepatocytes, n = 14, read-out: mean pEC50, secretion (converted)): 316 nM
- EC50 ([1]; Homo sapiens, as quoted for the PK‐PD target concentration, cell system not stated there, read-out: cellular secretion assay EC50): 300 nM
- increase in secreted levels of Z α1‐antitrypsin compared with vehicle control ([1]; ZZ iPSC‐derived human hepatocytes): approximately threefold
- Mean (PXC50): pMEC (Phospholipidosis): pMEC= 5.8
- EC50 (Serotonin 5HT1B): > 100000 nM
- IC50 (Serotonin 5HT1B): > 100000 nM
- binding to polymers of Z α1‐antitrypsin [2]: lack of binding
- EC50 (Cannabinoid CB1): > 100000 nM

Source: publication PMC7933930, “Development of a small molecule that corrects misfolding and increases secretion of Z α1‐antitrypsin” (EMBO Molecular Medicine, 2021)
